Results on four molecules are retold here after ChEMBL document CHEMBL1123698, “alpha-Methylproline-containing renin inhibitory peptides: in vivo evaluation in an anesthetized, ganglion-blocked, hog renin infused rat model” (J Med Chem, 1987).

A word on the IC50: it is the point on the concentration scale where inhibition reaches its midpoint. A high value points to weaker potency in that assay.

Square brackets hold non-standard residues; d marks the D form. Peptide text beside a SMILES is read from it. * marks the point of attachment. Sta = CC(C)C[C@H](N)[C@@H](O)CC(=O)O; NHCH2(2-pyridyl) = c1ccc(CN*)nc1; αMeP = C[C@@]1(C(=O)O)CCCN1; Boc = CC(C)(C)OC(=O)*

One assay deals with T1, Renin (Homo sapiens, UniProt P00797).
T1 sequence (P00797 whole entry): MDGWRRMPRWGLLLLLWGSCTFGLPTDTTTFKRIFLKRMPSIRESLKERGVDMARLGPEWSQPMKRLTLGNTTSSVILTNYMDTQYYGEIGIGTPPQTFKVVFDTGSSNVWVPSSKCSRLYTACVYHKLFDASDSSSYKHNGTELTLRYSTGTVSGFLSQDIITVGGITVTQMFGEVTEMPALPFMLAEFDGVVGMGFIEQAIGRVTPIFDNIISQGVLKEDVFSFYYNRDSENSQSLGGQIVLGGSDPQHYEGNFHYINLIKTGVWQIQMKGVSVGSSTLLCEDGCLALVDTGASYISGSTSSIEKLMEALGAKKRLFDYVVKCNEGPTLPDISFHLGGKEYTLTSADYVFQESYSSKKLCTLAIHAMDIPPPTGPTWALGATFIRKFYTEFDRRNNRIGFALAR
Briefly: In vitro inhibition against human plasma renin. It is filed as cell-free.

The next assay deals with Renin (Sus scrofa). Briefly: In vitro inhibition against hog renin.

Molecule `CC[C@H](C)[C@H](NC(=O)[C@@H](NC[C@H](CC(C)C)NC(=O)[C@H](Cc1c[nH]cn1)NC(=O)[C@H](Cc1ccccc1)NC(=O)[C@]1(C)CCCN1C(=O)OC(C)(C)C)C(C)C)C(=O)NCc1ccccn1` yielded an IC50 on Renin of 43 nM.

With `CC[C@H](C)[C@H](NC(=O)[C@@H](NC[C@H](O)[C@H](CC(C)C)NC(=O)[C@H](Cc1c[nH]cn1)N(C)C(=O)[C@H](Cc1ccccc1)NC(=O)[C@@H]1CCCN1C(=O)OC(C)(C)C)C(C)C)C(=O)NCc1ccccn1`, at Renin (Sus scrofa), half-maximal inhibition (IC50) was put at 40 nM.

On to `CC[C@H](C)[C@H](NC(=O)C[C@H](O)[C@H](CC(C)C)NC(=O)[C@H](Cc1ccccc1)NC(=O)[C@H](Cc1ccccc1)NC(=O)[C@]1(C)CCCN1C(=O)OC(C)(C)C)C(=O)NCc1ccccn1` (Boc-[αMeP]FF[Sta]I-{NHCH2(2-pyridyl)}), for which the IC50 on Renin is 36 nM.

As for `CC[C@H](C)[C@H](NC(=O)C[C@H](O)[C@H](CC(C)C)NC(=O)[C@H](Cc1c[nH]cn1)NC(=O)[C@H](Cc1ccccc1)NC(=O)[C@]1(C)CCCN1C(=O)OC(C)(C)C)C(=O)NCc1ccccn1` (Boc-[αMeP]FH[Sta]I-{NHCH2(2-pyridyl)}), half-maximal inhibition on Renin (IC50) was put at 3.5 nM.
